According to patent US7118899B2, “Detection of transmembrane potentials by optical methods” (The Regents of the University of California, priority 2001, dated 2006):

Columns and labels:
astrocytoma cells = experiment: Pentamethine oxonol translocation, displacement currents in voltage-clamped astrocytoma cells; type: cell-based; details: for translocation time constant (crosses the membrane): pentamethine oxonols, DiSBA-C6-(5) value at 20; for displacement current time constant: voltage steps of +20–120 mV
Description: The membrane translocation rates for the pentamethines are 5–8 times faster than the trimethine analogues. […] The trimethine analogue translocates […] under identical conditions. The displacement currents of DiSBAC6(5) decay very rapidly and are difficult to separate from the cell capacitance. As a result of the large voltage-dependent signal from the Cou-PE/DiSBAC6(5) pair, it was possible to optically measure the speed of voltage response of DiSBAC6(5). The time constant for DiSBAC6(5) translocation was measured optically at 0.383±0.032 ms in response to a 100 mV depolarization step, using FRET from asymmetrically labeled Cou-PE. The enhanced translocation rates result from the greater charge delocalization and slightly more hydrophobicity of the pentamethine oxonols. The rapid voltage response of DiSBAC6(5) is the fastest known for a permeant, highly fluorescent molecule. The submillisecond response is fast enough to accurately register action potentials of single neurons.

B104 neuroblastoma cells = experiment: Voltage-sensitive FRET in differentiated B104 neuroblastoma cells; type: cell-based; details: oxonol as FRET donor to Cy5 labeled PE
Method: (§1) All cells were grown and handled like L-M(TK^−) except where noted. L-M(TK^−) cells were grown in Dulbecco's Modified Eagle Media (Gibco; Grand Island, N.Y.) with 10% fetal bovine serum (FBS) and 1% penicillin streptomycin (PS) (Gemini; Calabasas, Calif.). B104 cells were differentiated with 1 μM retinoic acid for 5 days prior to use. The cells were plated on glass coverslips at least one day before use. The adherent cells were washed and maintained in 2.5–3.0 mL of HBSS with 1 g/L glucose and 20 mM HEPES at pH 7.4. A freshly prepared 75 μM aqueous solution of the appropriate oxonol was made prior to an experiment from a DMSO stock solution. […] If the excess ethyl or butyl oxonol derivatives were left in the bath, slow currents and fluorescence changes due to redistribution of the dyes into the cell were observed during depolarizations greater than 1 s. […]
(§2) The fluorescently labeled cells were excited with light from a 75 W xenon lamp passed through 450–490 nm excitation interference filters. […] The long wavelength Texas Red fluorescence was passed through a 605 nm DF55 bandpass filter. Voltage dependent fluorescence changes in single cells were measured using a Nikon microscope attached to a Photoscan II photometer equipped with two R928 PMTs for dual emission recordings. […]

L-M(TK^−) cells [1] = experiment: Voltage-sensitive FRET fluorescence changes in voltage clamped L-M(TK^−) cells; type: cell-based
Method: as §1, with “solution. The cells were stained by mixing 100 μL of the oxonol solution with 750 μL of the bath and then adding the diluted solution to the cells. The dye was left for 30–40 minutes at a bath concentration of […]. 1.5 mM β-cyclodextrin in the bath solution was necessary for cell loading of DiSBA-C6-(3). The butyl and ethyl derivatives were water-soluble enough to load cells with out β-cyclodextrin complexation. DiSBA-C10-(3) was loaded in a pH 7.4 solution containing 290 mM sucrose and 10 mM HEPES, 364 mOsm, for 10 min at a bath concentration of […]. DiSBA-C10-(3) labeling was quenched by replacing the bath with HBSS solution. The cells were stained with 15 µg/mL of FL-WGA for 15 minutes. The B104 cells required a 125 µg/mL bath concentration to give satisfactory lectin staining.” for “solution.”
as §2

L-M(TK^−) cells [2] = experiment: Oxonol displacement currents (membrane translocation), whole-cell voltage clamp; type: cell-based; details: for translocation time constant: voltage clamped mammalian cells
Method: All cells were grown and handled like L-M(TK^−) except where noted. L-M(TK^−) cells were grown in Dulbecco's Modified Eagle Media (Gibco; Grand Island, N.Y.) with 10% fetal bovine serum (FBS) and 1% penicillin streptomycin (PS) (Gemini; Calabasas, Calif.). B104 cells were differentiated with 1 μM retinoic acid for 5 days prior to use. The cells were plated on glass coverslips at least one day before use. The adherent cells were washed and maintained in 2.5–3.0 mL of HBSS with 1 g/L glucose and 20 mM HEPES at pH 7.4. A freshly prepared 75 μM aqueous solution of the appropriate oxonol was made prior to an experiment from a DMSO stock solution. The cells were stained by mixing 100 μL of the oxonol solution with 750 μL of the bath and then adding the diluted solution to the cells. The dye was left for 30–40 minutes at a bath concentration of […]. 1.5 mM β-cyclodextrin in the bath solution was necessary for cell loading of DiSBA-C6-(3). The butyl and ethyl derivatives were water-soluble enough to load cells with out β-cyclodextrin complexation. DiSBA-C10-(3) was loaded in a pH 7.4 solution containing 290 mM sucrose and 10 mM HEPES, 364 mOsm, for 10 min at a bath concentration of […]. DiSBA-C10-(3) labeling was quenched by replacing the bath with HBSS solution. The cells were stained with 15 µg/mL of FL-WGA for 15 minutes. The B104 cells required a 125 µg/mL bath concentration to give satisfactory lectin staining. The excess dyes were removed with repeated washes with HBSS. If the excess ethyl or butyl oxonol derivatives were left in the bath, slow currents and fluorescence changes due to redistribution of the dyes into the cell were observed during depolarizations greater than 1 s. The cardiac myocytes [Henderson, S. A., Spencer, M., Sen, A., Kumar, C., Siddiqui, M. A. Q., and Chien, K. R. 1989. Structure organization, and expression of the rat cardiac myosin light chain-2 gene. J. Biol. Chem. 264:18142–18146] were a gift of Professor Kenneth Chien, UCSD. The Jurkat lymphocyte suspensions were grown in RPMI media with 5% heat inactivated FBS and 1% PS. 15–20 mL aliquots of the cellular suspension were washed three times before and after dye staining by centrifugation at 100×g for 4 minutes followed by additions of fresh HBSS.
Patch clamp recording were made using an Axopatch 1-D amplifier equipped with a CV-4 headstage from Axon Instruments (Foster City, Calif.). The data were digitized and stored using the PCLAMP software. The pH 7.4 intracellular solution used contained 125 mM potassium gluconate, 1 mM CaCl2.2H2O, 2 mM MgCl2.6H2O, 11 mM EGTA, and 10 mM HEPES. For the B104 cells, 4 mM ATP and 0.5 mM GTP were added.
The translocation rates were studied in L-M(TK^−) cells using whole-cell voltage clamp recording. The L-M(TK^−) cells were chosen because they have very low background currents and are easy to patch clamp. These cells have a resting potential of −5 mV and no evident voltage activated currents.
12.5 ms long voltage steps at 15 mV increments were applied to the cell, from a holding potential of −70 mV. The larger, faster transients due to simple membrane capacitance transient could be minimized using the capacitance and series resistance compensation capabilities of the Axopatch amplifier, allowing the displacement currents to be clearly observed. The currents are due to redistribution of the membrane-bound oxonol in response to 8 depolarizations. The time constant for the displacement current is 2 ms for 120 mV depolarization. Equal amounts of charge move at the onset and conclusion of the voltage step, but in opposite directions, consistent with redistribution of stored ions from one energy minimum to the other across the plasma membrane. Furthermore, the induced capacitance dq/dV from the oxonol movement is calculated to be ˜5 pF for 100 mV depolarization. This value corresponds to roughly one third the membrane capacitance without the dye. […] The optimum density of sodium channels in an unmyelinated nerve. Philos. Trans. R. Soc. […]

[3] = tested on: targeted GFP expressing cells; experiment: Temporal response of the GFP/oxonol FRET change; type: cell-based; details: oxonol acceptors; identical to displacement current time constants
Description: The temporal response of the GFP/oxonol FRET change is dependent on the oxonol translocation rate and follows the previously observed trend with oxonol acceptors, faster responses with more hydrophobic acceptors. The measured time constants for the ethyl and butyl oxonol acceptors are ˜50 and ˜5 ms respectively in the targeted GFP expressing cells. The FRET response and the electrophysiologically measured displacement currents have identical time constants. The measured response times are 2–4 fold faster than previously reported and may be a property of the cells used or from a slight difference in temperature.

Jurkat cell suspensions = experiment: Quenching of FL-WGA fluorescence by oxonol titration in cell suspensions; type: cell-based; details: cells labeled with FL-WGA
Method: as §1
To transduce charge displacements into optical signals, the oxonol fluorescences at the intracellular and extracellular membrane binding sites is made different. Fluorescence asymmetry is created with the introduction of fluorescently labeled lectins bound to the extracellular membrane surface. […] The extinction coefficient and the fluorescence quantum yield of FL-WGA were measured to be 222,000 M^−1cm^−1 (˜3 fluorescein/protein) and 0.23, respectively. […]

neuroblastoma = details: cited from earlier work
1321N astrocytoma cells = experiment: Voltage-sensitive FRET fluorescence changes in voltage clamped astrocytoma cells; type: cell-based; details: 100 mV depolarization step, FRET from asymmetrically labeled Cou-PE
Method: as §1, §2

[4] = voltage-clamped fibroblasts, 100 mV depolarization at 20 C

CCCCN1C(=O)C(=CC=CC=Cc2c(O)n(CCCC)c(=S)n(CCCC)c2=O)C(=O)N(CCCC)C1=S [DiSBA-C4-(5)]
translocation rate relative to the trimethine oxonol analogues (astrocytoma cells): six times faster than the corresponding trimethine oxonol
translocation time constant (crosses the membrane) (astrocytoma cells): < 3 ms
displacement current time constant (astrocytoma cells): ~2 ms

CCCCCCN1C(=O)C(=CC=Cc2c(O)n(CCCCCC)c(=S)n(CCCCCC)c2=O)C(=O)N(CCCCCC)C1=S [DiSBA-C6-(3), (1,3-dihexyl-2-thiobarbiturate)trimethine oxonol]
ratio changes (B104 neuroblastoma cells): 5–15 %/100 mV
response time (in words) (L-M(TK^−) cells [1]; oxonol as FRET donor to TR-WGA): same response time as FL-WGA/DiSBA-C6-(3)
signal change (in words) (L-M(TK^−) cells [1]; oxonol as FRET donor to TR-WGA): only one half that for FL-WGA/DiSBA-C6-(3)
time constant for the displacement current (L-M(TK^−) cells [2]; 120 mV depolarization, holding potential −70 mV, 20 C): 2 ms
max, time constant for translocation at V=Vh (L-M(TK^−) cells [2]; fit to Eq. 2, FIG. 5, Vh=−5 mV and β=0.42): 2.9 ms
translocation time constant (L-M(TK^−) cells [2]): < 3 ms
displacement current time constant (L-M(TK^−) cells [2]; [4]): about 2 ms

CCCCN1C(=O)C(=CC=Cc2c(O)n(CCCC)c(=S)n(CCCC)c2=O)C(=O)N(CCCC)C1=S [DiSBA-C4-(3), Bis-(1,3-dibutyl-2-thiobarbiturate)-trimethineoxonol]
time constant of the FRET response [3]: ~5 ms
activation energy of translocation (L-M(TK^−) cells [1]; from time constants at 20 C and 29 C): ~71.1 kJ/mol
lectin fluorescence intensity quenched (Jurkat cell suspensions): up to 30%
displacement current time constant (L-M(TK^−) cells [2]; 20 C): ~18 ms
displacement current time constant (astrocytoma cells): ~18 ms

CCCCCN(CCCCC)c1ccc(/C=C/C=C/c2cc[n+](CCCCS(=O)(=O)[O-])cc2)cc1 [RH-421]
fluorescence change (neuroblastoma): 21 % /100 mV

CCCCCCN1C(=O)C(=CC=CC=Cc2c(O)n(CCCCCC)c(=S)n(CCCCCC)c2=O)C(=O)N(CCCCCC)C1=S [DiSBA-C6-(5), Bis-(1,3-dihexyl-2-thiobarbiturate)-pentamethineoxonol]
time constant for translocation, measured optically (1321N astrocytoma cells): 0.383 ± 0.032 ms
response time (astrocytoma cells): less than 1 ms
translocation time constant (crosses the membrane) (astrocytoma cells): ~0.4 ms

CCCCCCCCCCN1C(=O)C(=CC=Cc2c(O)n(CCCCCCCCCC)c(=S)n(CCCCCCCCCC)c2=O)C(=O)N(CCCCCCCCCC)C1=S [DiSBA-C10-(3)]
displacement currents (in words) (L-M(TK^−) cells [2]; compared with DiSBA-C6-(3), 20 C): approximately the same speed
translocation time constant (L-M(TK^−) cells [2]): < 2 ms
displacement current time constant (L-M(TK^−) cells [2]; [4]): about 2 ms
